Square brackets hold non-standard residues; d marks the D form. Peptide text beside a SMILES is read from it. * marks the point of attachment. Dolaproine = CO[C@@H]([C@@H]1CCCN1)[C@@H](C)C(=O)O; Dil = CC[C@H](C)[C@H](NC)[C@@H](CC(=O)O)OC; X1 = C[C@@H](N*)[C@@H](O)c1ccccc1; NMeV = CN[C@H](C(=O)O)C(C)C
Key:
[1] = PBPK model fitting and parameter estimation for MMAE; conditions: PBPK model estimate (CV%), mice, 0.1 mg/kg i.v.
Excerpt: The PBPK model included 16 tissues and a tumor compartment, and all of them were connected via blood flow and arranged anatomically. The tissue compartments included blood, lung, heart, kidney, muscle, skin, liver, brain, adipose, thymus, bone, small intestine, large intestine, spleen, pancreas, and other (i.e., carcass). All the other tissues, except those mentioned, were lumped into the ‘other’ compartment. The arterial blood to each organ was delivered by the efferent blood supplied from the lung, which perfused to each organ and then converged into the blood compartment, which represents the venous pool. Venous blood returned from the small intestine, large intestine, spleen, and pancreas were delivered to the liver. For the intestines, spleen, and pancreas, blood was delivered to the liver via the hepatic portal vein and mixed with liver artery blood after leaving the tissues. The delivery of the blood from the blood compartment to the lung completed the circulation of the flow. Based on in vitro, preclinical, and clinical data, the elimination of MMAE was assumed to be predominantly through the CYP3A4/5-mediated metabolic pathway and biliary/fecal excretion. Limited renal excretion (<10%) of MMAE has been reported. Therefore, we assumed that MMAE was eliminated solely via hepatic clearance (CL) from the liver interstitial space.
Each tissue compartment was further divided into the vascular, endothelial cell, interstitial, and cellular sub-compartments, and vascular space was divided into plasma and blood cells, as shown in Figure 1b. We aimed to make the sub-compartment division the same as our previously published platform antibody PBPK model, and thus, one can easily connect MMAE and an antibody PBPK model to build an ADC PBPK model. The rapid distribution of MMAE between plasma, endothelial cells, and interstitial space was assumed, and thus, the distribution rate between these compartments was set as a value 1000 times higher than the value of blood flow in each tissue. […] The partitioning of MMAE to the blood cells or cellular space was characterized using the KP values. The calculated KP values were adjusted for the ratios of cellular space volume to total tissue volume by dividing KP values with the ratio in each tissue. […] Only free MMAE was assumed to diffuse through the cellular membrane, and thus, the fraction of unbound drug in blood cells or tissue cellular space ( fu,t ) was calculated using Equation (2). (2) fu,t=fu,p/KP,i,
Equations (3) and (4) describe blood cell and plasma concentrations of MMAE, respectively. Equations that described MMAE concentration in the liver (Equations (5)–(9)), lung (Equations (10)–(14)), a typical tissue (Equations (15)–(19)), and tumor (Equations (20)–(23)) are provided below. In these equations, Qplasmai and QBClung are plasma flow and blood cell flow to the tissue i. Vplasma and VBC are volumes of central plasma and blood cell compartments. Vplasmai , VBCi , Vendoi , VISi , and Vcellulari are volumes of vascular, blood cell, endosomal, interstitial, and cellular compartments for tissue i. Cplasma and CBC are MMAE concentration in systemic plasma and blood cell compartments. Cplasmai , CBCi , Cendoi , CISi , and Ccellulari are MMAE concentration in vascular, blood cell, endosomal, interstitial, and cellular compartments of tissue i. PSBC is the permeability coefficient for the blood cell sub-compartment.
Physiological parameters for mice were obtained from our previously published PBPK model. Radius of the tumor blood capillary ( Rcap ), average distance between two capillaries ( Rkrough ), tumor void volume for MMAE ( ε ), P, D, and efflux rate of MMAE from the cells ( kout ) were obtained from the literature. […]

[2] = cited from earlier work
Excerpt: The PBPK model included 16 tissues and a tumor compartment, and all of them were connected via blood flow and arranged anatomically. The tissue compartments included blood, lung, heart, kidney, muscle, skin, liver, brain, adipose, thymus, bone, small intestine, large intestine, spleen, pancreas, and other (i.e., carcass). All the other tissues, except those mentioned, were lumped into the ‘other’ compartment. The arterial blood to each organ was delivered by the efferent blood supplied from the lung, which perfused to each organ and t ... || It is reported that the elimination (metabolism and excretion) of MMAE is mainly through CYP3A4-mediated metabolism, biliary/fecal excretion, or urinary excretion. About 80% of MMAE excretes via feces, and only 6% excretes via urine. Therefore, we assumed that MMAE was eliminated only via metabolism and biliary/fecal excretion from the liver. […] For the derivation of CLint based on in vitro data, the CLint, vitro were estimated using human hepatocyte (3 µL/min/10^6 cells) and human ...

CC[C@H](C)[C@@H]([C@@H](CC(=O)N1CCC[C@H]1[C@H](OC)[C@@H](C)C(=O)N[C@H](C)[C@@H](O)c1ccccc1)OC)N(C)C(=O)[C@@H](NC(=O)[C@@H](NC)C(C)C)C(C)C [MMAE, Monomethyl auristatin E] (H-[NMeV]V[Dil][Dolaproine]-X1)
CLint (liver intrinsic clearance) [1]: 137 (8.92) mL/h | PSblood (permeability-surface area coefficient) ([1]; blood cells): 0.105 (12.6) mL/h | PSbone (permeability-surface area coefficient) ([1]; bone): 0.568 (20.9) mL/h | PSbrain (permeability-surface area coefficient) ([1]; brain): 0.00825 (40.4) mL/h | PSfat (permeability-surface area coefficient) ([1]; fat): 0.588 (23.5) mL/h | PSheart (permeability-surface area coefficient) ([1]; heart): 1.47 (17.1) mL/h | PSkidney (permeability-surface area coefficient) ([1]; kidney): 14.2 (20.2) mL/h | PSliver (permeability-surface area coefficient) ([1]; liver): 49.2 (48.4) mL/h | PSlung (permeability-surface area coefficient) ([1]; lung): 2.47 (13.2) mL/h | PSmuscle (permeability-surface area coefficient) ([1]; muscle): 3.16 (21.1) mL/h | PSpancreas (permeability-surface area coefficient) ([1]; pancreas): 0.0657 (18.7) mL/h | PSskin (permeability-surface area coefficient) ([1]; skin): 0.681 (30.6) mL/h | PSspleen (permeability-surface area coefficient) ([1]; spleen): 0.457 (18.5) mL/h | excretion via feces [2]: About 80% | excretion via urine [2]: 6% | renal excretion [2]: < 10%
